From the NIST ThermoML archive (doi:10.1021/je700152c)

Assay: molar heat capacity at saturation pressure; xn = mol fraction of the nth substance listed

CCCCn1cc[n+](C)c1.Cc1ccc(S(=O)(=O)[O-])cc1 [1-butyl-3-methylimidazolium tosylate] + O
molar heat capacity [J/K/mol]
Conditions | Crystal | Metastable crystal
78.15 K, x1 = 0.83 | 130.09 | –
78.19 K, x1 = 0.83 | – | 130.61
80.13 K, x1 = 0.83 | 132.44 | –
80.17 K, x1 = 0.83 | – | 132.96
81.97 K, x1 = 0.83 | 134.26 | –
82.01 K, x1 = 0.83 | – | 135.05
83.83 K, x1 = 0.83 | 136.35 | –
83.86 K, x1 = 0.83 | – | 137.39
85.69 K, x1 = 0.83 | 138.43 | –
85.72 K, x1 = 0.83 | – | 139.48
87.56 K, x1 = 0.83 | 140.78 | –
87.59 K, x1 = 0.83 | – | 141.82
89.44 K, x1 = 0.83 | 142.87 | –
89.46 K, x1 = 0.83 | – | 144.17
91.33 K, x1 = 0.83 | 144.95 | –
91.34 K, x1 = 0.83 | – | 146.26
93.22 K, x1 = 0.83 | 147.04 | –
93.23 K, x1 = 0.83 | – | 148.6
95.13 K, x1 = 0.83 | 149.12 | 150.69
97.03 K, x1 = 0.83 | – | 153.03
97.04 K, x1 = 0.83 | 150.95 | –
98.94 K, x1 = 0.83 | – | 155.38
98.95 K, x1 = 0.83 | 153.03 | –
100.85 K, x1 = 0.83 | – | 157.47
100.88 K, x1 = 0.83 | 155.12 | –
102.77 K, x1 = 0.83 | – | 159.81
102.8 K, x1 = 0.83 | 156.94 | –
104.69 K, x1 = 0.83 | – | 161.9
104.74 K, x1 = 0.83 | 159.03 | –
106.61 K, x1 = 0.83 | – | 164.24
106.68 K, x1 = 0.83 | 161.12 | –
108.55 K, x1 = 0.83 | – | 166.33
108.63 K, x1 = 0.83 | 163.2 | –
110.48 K, x1 = 0.83 | – | 168.68
110.57 K, x1 = 0.83 | 165.03 | –
112.41 K, x1 = 0.83 | – | 170.76
112.53 K, x1 = 0.83 | 167.11 | –
114.35 K, x1 = 0.83 | – | 173.11
114.48 K, x1 = 0.83 | 169.2 | –
116.29 K, x1 = 0.83 | – | 175.19
116.44 K, x1 = 0.83 | 171.02 | –
118.23 K, x1 = 0.83 | – | 177.54
118.4 K, x1 = 0.83 | 173.11 | –
120.18 K, x1 = 0.83 | – | 179.89
120.37 K, x1 = 0.83 | 175.19 | –
122.12 K, x1 = 0.83 | – | 182.23
122.34 K, x1 = 0.83 | 177.02 | –
124.07 K, x1 = 0.83 | – | 184.32
124.3 K, x1 = 0.83 | 179.1 | –
126.01 K, x1 = 0.83 | – | 186.66
126.27 K, x1 = 0.83 | 181.19 | –
127.96 K, x1 = 0.83 | – | 189.01
128.25 K, x1 = 0.83 | 183.28 | –
129.91 K, x1 = 0.83 | – | 191.36
130.22 K, x1 = 0.83 | 185.36 | –
131.86 K, x1 = 0.83 | – | 193.7
132.19 K, x1 = 0.83 | 187.45 | –
133.81 K, x1 = 0.83 | – | 196.05
134.16 K, x1 = 0.83 | 189.79 | –
134.57 K, x1 = 0.3 | 80.15 | –
135.75 K, x1 = 0.83 | – | 198.4
136.14 K, x1 = 0.83 | 192.14 | –
137.46 K, x1 = 0.3 | 81.31 | –
137.7 K, x1 = 0.83 | – | 201
138.11 K, x1 = 0.83 | 194.75 | –
139.65 K, x1 = 0.83 | – | 203.09
140.08 K, x1 = 0.83 | 197.88 | –
140.19 K, x1 = 0.3 | 82.47 | –
141.59 K, x1 = 0.83 | – | 205.7
142.04 K, x1 = 0.83 | 201.53 | –
142.92 K, x1 = 0.3 | 83.64 | –
143.53 K, x1 = 0.83 | – | 208.04
143.99 K, x1 = 0.83 | 206.74 | –
145.47 K, x1 = 0.83 | – | 210.65
145.65 K, x1 = 0.3 | 84.8 | –
145.93 K, x1 = 0.83 | 214.56 | –
147.41 K, x1 = 0.83 | – | 213
147.86 K, x1 = 0.83 | 217.43 | –
148.38 K, x1 = 0.3 | 85.96 | –
149.35 K, x1 = 0.83 | – | 215.34
149.8 K, x1 = 0.83 | 211.69 | –
151.11 K, x1 = 0.3 | 87.13 | –
151.28 K, x1 = 0.83 | – | 217.95
151.76 K, x1 = 0.83 | 207.26 | –
153.22 K, x1 = 0.83 | – | 220.3
153.74 K, x1 = 0.83 | 206.22 | –
153.84 K, x1 = 0.3 | 88.29 | –
155.15 K, x1 = 0.83 | – | 222.64
155.72 K, x1 = 0.83 | 206.74 | –
156.57 K, x1 = 0.3 | 89.45 | –
157.08 K, x1 = 0.83 | – | 224.99
157.71 K, x1 = 0.83 | 207.78 | –
159.01 K, x1 = 0.83 | – | 227.6
159.29 K, x1 = 0.3 | 90.61 | –
159.7 K, x1 = 0.83 | 209.09 | –
160.94 K, x1 = 0.83 | – | 229.94
161.69 K, x1 = 0.83 | 210.65 | –
161.79 K, x1 = 0.37 | 108.28 | –
162.02 K, x1 = 0.3 | 91.78 | –
162.86 K, x1 = 0.83 | – | 232.29
163.68 K, x1 = 0.83 | 212.47 | –
164.74 K, x1 = 0.3 | 92.94 | –
164.78 K, x1 = 0.83 | – | 234.63
164.91 K, x1 = 0.37 | 109.92 | –
165.67 K, x1 = 0.83 | 214.3 | –
166.7 K, x1 = 0.83 | – | 236.72
167.46 K, x1 = 0.3 | 94.21 | –
167.65 K, x1 = 0.83 | 215.86 | –
167.87 K, x1 = 0.37 | 111.44 | –
168.62 K, x1 = 0.83 | – | 239.07
169.64 K, x1 = 0.83 | 217.69 | –
170.18 K, x1 = 0.3 | 95.37 | –
170.53 K, x1 = 0.83 | – | 240.89
170.82 K, x1 = 0.37 | 112.95 | –
171.63 K, x1 = 0.83 | 219.51 | –
172.45 K, x1 = 0.83 | – | 243.24
172.9 K, x1 = 0.3 | 96.64 | –
173.61 K, x1 = 0.83 | 221.34 | –
173.77 K, x1 = 0.37 | 114.59 | –
174.36 K, x1 = 0.83 | – | 245.32
175.6 K, x1 = 0.83 | 223.42 | –
175.61 K, x1 = 0.3 | 97.91 | –
176.27 K, x1 = 0.83 | – | 247.15
176.72 K, x1 = 0.37 | 116.23 | –
177.58 K, x1 = 0.83 | 224.99 | –
178.18 K, x1 = 0.83 | – | 248.97
178.32 K, x1 = 0.3 | 99.28 | –
179.56 K, x1 = 0.83 | 227.07 | –
179.67 K, x1 = 0.37 | 118.38 | –
180.09 K, x1 = 0.83 | – | 250.8
181.02 K, x1 = 0.3 | 101.4 | –
181.54 K, x1 = 0.83 | 228.9 | –
181.99 K, x1 = 0.83 | – | 252.62
182.6 K, x1 = 0.37 | 121.41 | –
183.52 K, x1 = 0.83 | 230.72 | –
183.7 K, x1 = 0.3 | 104.68 | –
183.9 K, x1 = 0.83 | – | 254.19
185.5 K, x1 = 0.37 | 126.71 | –
185.5 K, x1 = 0.83 | 232.81 | –
185.8 K, x1 = 0.83 | – | 256.01
186.36 K, x1 = 0.3 | 107.53 | –
187.47 K, x1 = 0.83 | 234.9 | –
